Results reported in PubChem BioAssay (NCI).
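1) Cells in 96-well plates. 2) Compound, 48 h, 5 concentrations. 3) Linear interpolation between surrounding doses. 4) Unreached endpoint = highest concentration. Here, GI50 denotes the concentration required for 50% inhibition of growth. TGI: total growth inhibition.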

Columns and labels:
Assay in all cases: NCI anticancer screen, dose series, 48 h
UACC-62 melanoma = tested on: UACC-62 melanoma
U251 CNS = tested on: U251 CNS
BT-549 breast = tested on: BT-549 breast
SR leukemia = tested on: SR leukemia
OVCAR-4 ovarian = tested on: OVCAR-4 ovarian
EKVX NSCLC = tested on: EKVX NSCLC
SN12C renal = tested on: SN12C renal
SW-620 colon = tested on: SW-620 colon
RPMI-8226 leukemia = tested on: RPMI-8226 leukemia
CAKI-1 renal = tested on: CAKI-1 renal
786-0 renal = tested on: 786-0 renal
OVCAR-3 ovarian = tested on: OVCAR-3 ovarian
MALME-3M melanoma = tested on: MALME-3M melanoma
T-47D breast = tested on: T-47D breast
HCT-116 colon = tested on: HCT-116 colon
SK-MEL-5 melanoma = tested on: SK-MEL-5 melanoma
TK-10 renal = tested on: TK-10 renal
HCC-2998 colon = tested on: HCC-2998 colon
NCI-H226 lung = tested on: NCI-H226 lung
PC-3 prostate = tested on: PC-3 prostate
MDA-MB-435 = tested on: MDA-MB-435
SNB-19 CNS = tested on: SNB-19 CNS
UO-31 renal = tested on: UO-31 renal
SF-268 CNS = tested on: SF-268 CNS
ACHN renal = tested on: ACHN renal
HOP-92 NSCLC = tested on: HOP-92 NSCLC
SK-MEL-28 melanoma = tested on: SK-MEL-28 melanoma
MCF7 breast = tested on: MCF7 breast
HT29 colon = tested on: HT29 colon
SNB-75 CNS = tested on: SNB-75 CNS
IGROV1 ovarian = tested on: IGROV1 ovarian
HL-60(TB) leukemia = tested on: HL-60(TB) leukemia
HS 578T breast = tested on: HS 578T breast
HOP-62 NSCLC = tested on: HOP-62 NSCLC
NCI-H460 lung = tested on: NCI-H460 lung
OVCAR-8 ovarian = tested on: OVCAR-8 ovarian
SK-OV-3 ovarian = tested on: SK-OV-3 ovarian
NCI-H23 lung = tested on: NCI-H23 lung
DU-145 prostate = tested on: DU-145 prostate
UACC-257 melanoma = tested on: UACC-257 melanoma
MOLT-4 leukemia = tested on: MOLT-4 leukemia
SF-295 CNS = tested on: SF-295 CNS
M14 melanoma = tested on: M14 melanoma
LOX IMVI melanoma = tested on: LOX IMVI melanoma
MDA-MB-231 breast = tested on: MDA-MB-231 breast
A498 renal = tested on: A498 renal
NCI-H522 lung = tested on: NCI-H522 lung
CCRF-CEM leukemia = tested on: CCRF-CEM leukemia
A549 NSCLC = tested on: A549 NSCLC
COLO 205 colon = tested on: COLO 205 colon
HCT-15 colon = tested on: HCT-15 colon
K-562 leukemia = tested on: K-562 leukemia
RXF 393 renal = tested on: RXF 393 renal
SK-MEL-2 melanoma = tested on: SK-MEL-2 melanoma
OVCAR-5 ovarian = tested on: OVCAR-5 ovarian
NCI/ADR-RES ovarian = tested on: NCI/ADR-RES ovarian
KM12 colon = tested on: KM12 colon
SF-539 CNS = tested on: SF-539 CNS

For `COc1cc2c(O[C@@H]3OC[C@H](OC(C)=O)[C@H](OC(C)=O)[C@H]3O)c3c(c(-c4ccc5c(c4)OCO5)c2cc1OC)C(=O)OC3`, the GI50 (UACC-62 melanoma) was 155 nM, the TGI (UACC-62 melanoma) was 517 nM and the GI50 (U251 CNS) was 1160 nM. It also gave a TGI (U251 CNS) of over 10000 nM, a GI50 (BT-549 breast) of 72.2 nM and a TGI (BT-549 breast) of over 7760 nM. For the same molecule, the GI50 (SR leukemia) was 59 nM, the TGI (SR leukemia) was over 10000 nM and the GI50 (OVCAR-4 ovarian) was over 3120 nM. It also gave a TGI (OVCAR-4 ovarian) of over 10000 nM, a GI50 (EKVX NSCLC) of 859 nM and a TGI (EKVX NSCLC) of over 10000 nM. It also gave a GI50 (SN12C renal) of 284 nM, a TGI (SN12C renal) of over 10000 nM and a GI50 (SW-620 colon) of 491 nM. The TGI (SW-620 colon) was over 10000 nM, the GI50 (RPMI-8226 leukemia) was 64.7 nM and the TGI (RPMI-8226 leukemia) was over 3750 nM. It also gave a GI50 (CAKI-1 renal) of 93.1 nM, a TGI (CAKI-1 renal) of over 10000 nM and a GI50 (786-0 renal) of 2030 nM. It also gave a TGI (786-0 renal) of over 7810 nM, a GI50 (OVCAR-3 ovarian) of over 5480 nM and a TGI (OVCAR-3 ovarian) of over 10000 nM. For the same molecule, the GI50 (MALME-3M melanoma) was 565 nM, the TGI (MALME-3M melanoma) was over 5340 nM and the GI50 (T-47D breast) was 115 nM. For the same molecule, the TGI (T-47D breast) was over 10000 nM, the GI50 (HCT-116 colon) was 167 nM and the TGI (HCT-116 colon) was over 10000 nM. The GI50 (SK-MEL-5 melanoma) was 57.2 nM, the TGI (TK-10 renal) was over 10000 nM and the GI50 (HCC-2998 colon) was 1560 nM. For the same molecule, the TGI (HCC-2998 colon) was over 10000 nM, the GI50 (NCI-H226 lung) was 253 nM and the TGI (NCI-H226 lung) was over 10000 nM. The GI50 (PC-3 prostate) was 870 nM, the TGI (PC-3 prostate) was over 10000 nM and the GI50 (MDA-MB-435) was 359 nM. For the same molecule, the TGI (MDA-MB-435) was 3060 nM, the GI50 (SNB-19 CNS) was over 9570 nM and the TGI (SNB-19 CNS) was over 10000 nM. For the same molecule, the GI50 (UO-31 renal) was 1780 nM, the TGI (UO-31 renal) was 6740 nM and the GI50 (SF-268 CNS) was 1470 nM. It also gave a TGI (SF-268 CNS) of over 10000 nM, a GI50 (ACHN renal) of 566 nM and a TGI (ACHN renal) of over 10000 nM. The GI50 (HOP-92 NSCLC) was 178 nM, the TGI (HOP-92 NSCLC) was 1400 nM and the GI50 (SK-MEL-28 melanoma) was 264 nM. For the same molecule, the TGI (SK-MEL-28 melanoma) was 2870 nM, the GI50 (MCF7 breast) was 684 nM and the TGI (MCF7 breast) was over 10000 nM. It also gave a GI50 (HT29 colon) of 165 nM, a TGI (HT29 colon) of over 10000 nM and a GI50 (SNB-75 CNS) of 274 nM. The TGI (SNB-75 CNS) was over 5890 nM, the GI50 (IGROV1 ovarian) was 400 nM and the TGI (IGROV1 ovarian) was over 10000 nM. It also gave a GI50 (HL-60(TB) leukemia) of 433 nM, a TGI (HL-60(TB) leukemia) of over 10000 nM and a GI50 (HS 578T breast) of 3990 nM. The TGI (HS 578T breast) was over 10000 nM, the GI50 (HOP-62 NSCLC) was 797 nM and the TGI (HOP-62 NSCLC) was over 10000 nM. It also gave a GI50 (NCI-H460 lung) of 255 nM, a TGI (NCI-H460 lung) of over 10000 nM and a GI50 (OVCAR-8 ovarian) of 189 nM. For the same molecule, the TGI (OVCAR-8 ovarian) was over 10000 nM, the TGI (SK-OV-3 ovarian) was over 10000 nM and the GI50 (NCI-H23 lung) was 3240 nM. The TGI (NCI-H23 lung) was over 10000 nM, the GI50 (DU-145 prostate) was 754 nM and the TGI (DU-145 prostate) was over 10000 nM. It also gave a GI50 (UACC-257 melanoma) of 276 nM, a TGI (UACC-257 melanoma) of 1170 nM and a GI50 (MOLT-4 leukemia) of 437 nM. It also gave a TGI (MOLT-4 leukemia) of over 10000 nM, a GI50 (SF-295 CNS) of 270 nM and a TGI (SF-295 CNS) of 923 nM. For the same molecule, the GI50 (M14 melanoma) was 192 nM, the TGI (M14 melanoma) was 649 nM and the GI50 (LOX IMVI melanoma) was 23.3 nM. The TGI (LOX IMVI melanoma) was 90.8 nM, the GI50 (MDA-MB-231 breast) was 75.4 nM and the TGI (MDA-MB-231 breast) was 1800 nM. For the same molecule, the GI50 (A498 renal) was 1130 nM, the TGI (A498 renal) was over 10000 nM and the GI50 (NCI-H522 lung) was 252 nM. It also gave a TGI (NCI-H522 lung) of over 10000 nM, a GI50 (CCRF-CEM leukemia) of 498 nM and a TGI (CCRF-CEM leukemia) of over 10000 nM. For the same molecule, the GI50 (A549 NSCLC) was 613 nM, the TGI (A549 NSCLC) was over 10000 nM and the GI50 (COLO 205 colon) was 76.4 nM. The TGI (COLO 205 colon) was over 10000 nM, the GI50 (HCT-15 colon) was 725 nM and the TGI (HCT-15 colon) was over 10000 nM. It also gave a GI50 (K-562 leukemia) of 436 nM, a TGI (K-562 leukemia) of over 10000 nM and a GI50 (RXF 393 renal) of 267 nM. The TGI (RXF 393 renal) was over 10000 nM, the GI50 (SK-MEL-2 melanoma) was 1050 nM and the TGI (SK-MEL-2 melanoma) was 6910 nM. It also gave a GI50 (OVCAR-5 ovarian) of 112 nM, a TGI (OVCAR-5 ovarian) of over 10000 nM and a GI50 (NCI/ADR-RES ovarian) of 1830 nM. For the same molecule, the TGI (NCI/ADR-RES ovarian) was over 10000 nM, the GI50 (KM12 colon) was 471 nM and the TGI (KM12 colon) was over 10000 nM. For the same molecule, the GI50 (SF-539 CNS) was 437 nM and the TGI (SF-539 CNS) was over 10000 nM.
